The record followed here is article PMC10412597, “Small molecule branched-chain ketoacid dehydrogenase kinase (BDK) inhibitors with opposing effects on BDK protein levels” (Nature Communications, 2023).

Like-named read-outs stand apart in the source and are kept apart here.

In general, IC50 refers to the concentration that inhibits the measured activity by half. The Kd is the free concentration of one partner at which half of the binding sites on the other are occupied at equilibrium, for simple one-to-one binding. What is called EC50 is the concentration that produces a half-maximal response. A high value points to weaker potency.

Assay [1] addresses T1, BDK (branched-chain ketoacid dehydrogenase kinase, BCKDK; hBDK) (Homo sapiens, UniProt O14874).
T1 construct: purified recombinant kinase; construct details only in Supplementary Information; human stated for the crystal structures
Kind of assay: biochemical. More on the design: TR-FRET BDK kinase assay, phosphorylation of LBD-E1 substrate, 15 uM ATP. As to conditions: read-out: BDK in vitro IC50. As to the method:
705 covered with a lid and allowed to incubate at room temperature for 90 min. Final concentration of 706 LBD-E1 substrate was 50 nM and final concentration of ATP was 15 µM. Following incubation, 707 the enzyme reactions were stopped by adding 5 µL of 4X stop/primary antibody solution 708 containing 100 mM (final) EDTA, 2 nM (final) anti-His Eu antibody, and 1:1000 anti-pE1 antibody 709 in assay buffer. The plates were covered and incubated at room temperature for 30 min. Finally, 710 5 µL of 4X detection reagent consisting of 20 nM (final) anti-rabbit Ulight antibody and 1X LANCE 711 detection buffer in dH2O was then added. The plates were centrifuged for 30 seconds at 113 x g. 712 After a 60 min incubation, the plates were read on an EnVision® MultiReader in TR-FRET mode 713 (excitation 320 nm: emissions 665 nm). The raw data from the EnVision® MultiReader was 714 expressed as a ratio and was analyzed using proprietary software (Activity Base). […] IC50 values were determined from the percent effect data using a 4-parameter logistic dose 718 response model (Activity Base). To discover a potent and selective BDK inhibitor, a subset of the Pfizer compound collection was screened. […] Off target activity was assessed in both CEREP and kinase panels (Supplementary Tables 2, 3).

Assay [2] addresses T1, BDK (branched-chain ketoacid dehydrogenase kinase, BCKDK; hBDK). Kind of assay: biochemical. Set-up: SPR binding to captured BDK, 1:1 binding model. As to conditions: read-out: BDK SPR KD. Here is the method:
828 Tween-20 and 2% DMSO. The same buffer was used as the running buffer during the 829 experiments. Compound samples were injected at a flow rate of 30 µL/min for 120 seconds of 830 association time followed by at least 300 seconds of dissociation period. The compounds were 831 tested in a concentration series consisting of at least 6 samples made with 2-fold dilution. The 832 highest concentration was selected based on compound potency in the biochemical assay or 833 binding affinity observed in a previous experiment. Multiple blank injections were run before and 834 after each compound series to allow double reference subtraction during data processing and 835 analysis. Radicicol was tested in every experiment as a positive control to assess activity of the 836 captured protein on the surface. A DMSO curve was run during each experiment to properly 837 correct for excluded volume. The data were processed and analyzed using Bruker Analyzer, 838 Scrubber and Biaeval softwares to calculate binding affinities and kinetics by fitting the data to 839 1:1 binding model. To discover a potent and selective BDK inhibitor, a subset of the Pfizer compound collection was screened. […] Off target activity was assessed in both CEREP and kinase panels (Supplementary Tables 2, 3).

Assay [3] shares this target. The assay can be described thus: SPR. The class given is binding. From the text:
SPR on BDK (branched-chain ketoacid dehydrogenase kinase, BCKDK; hBDK)

The target in assay [4] is T2, BDK-BCKDHE2 (biotinylated BDK with full length non-lipoylated E2 core subunit) (Homo sapiens, UniProt O14874).
T2 construct: gene BCKDK; E2 with N-terminal FLAG and TEV site, DBT residues 62-482, bacterial expression, non-lipoylated; with Lipoamide acyltransferase component of branched-chain alpha-keto acid dehydrogenase complex, mitochondrial
Kind of assay: AlphaLISA BDK-E2 protein-protein interaction, signal increase. The class given is binding. A general note: Bead proximity is the source of the signal in Alpha formats.

The target in assay [5] is T3, BDK in human skeletal myocytes (Homo sapiens, UniProt O14874).
T3 construct: gene BCKDK; endogenous full kinase in human skeletal myocytes; read-out BCKDH E1alpha phosphorylation
The assay can be described thus: AlphaLISA SureFire Ultra BCKDH phosphorylation in human skeletal myocytes. Type of assay: cell-based. As to conditions: intact cells; read-out: Human skeletal myocyte IC50 (nM)^a. The text has this:
AlphaLISA SureFire Ultra BCKDH phosphorylation in human skeletal myocytes on BDK in human skeletal myocytes

Assay [6] addresses T1, BDK (branched-chain ketoacid dehydrogenase kinase, BCKDK; hBDK). Kind of assay: FRET assay of BDK phosphorylation of E2 RBD-E1 peptide substrate. The class given is biochemical. The settings on record: read-out: BDK in vitro IC50 (nM)^a. From the text: FRET assay of BDK phosphorylation of E2 RBD-E1 peptide substrate on BDK (branched-chain ketoacid dehydrogenase kinase, BCKDK; hBDK)

In assay [7] the target is T2, BDK-BCKDHE2 (biotinylated BDK with full length non-lipoylated E2 core subunit). The assay can be described thus: AlphaLISA BDK-E2 protein-protein interaction, signal decrease. Type of assay: binding.
The target in the next assay is T4, Serotonin 5-HT2a (Homo sapiens, UniProt P28223).
T4 construct: gene HTR2A
T4 sequence (P28223 whole entry): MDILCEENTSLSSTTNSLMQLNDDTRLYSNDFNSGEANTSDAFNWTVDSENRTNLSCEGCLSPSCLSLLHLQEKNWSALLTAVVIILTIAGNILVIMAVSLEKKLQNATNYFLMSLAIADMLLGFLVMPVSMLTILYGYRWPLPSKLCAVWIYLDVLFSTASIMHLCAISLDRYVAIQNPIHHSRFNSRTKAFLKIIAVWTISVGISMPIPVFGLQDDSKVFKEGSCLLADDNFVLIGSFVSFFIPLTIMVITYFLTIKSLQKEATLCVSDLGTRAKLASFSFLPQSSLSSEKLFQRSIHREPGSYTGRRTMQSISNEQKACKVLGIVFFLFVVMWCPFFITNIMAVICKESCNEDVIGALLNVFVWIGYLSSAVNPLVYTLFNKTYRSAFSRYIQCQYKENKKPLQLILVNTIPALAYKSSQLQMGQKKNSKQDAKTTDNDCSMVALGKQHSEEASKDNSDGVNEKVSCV
Set-up: Cerep Bioprint off-target panel, functional receptor agonism or antagonism. The settings on record: agonist. Here is the method: To discover a potent and selective BDK inhibitor, a subset of the Pfizer compound collection was screened. […] Off target activity was assessed in both CEREP and kinase panels (Supplementary Tables 2, 3).

Take `O=C(O)c1sc2cc(Cl)sc2c1Cl` [S1]: in assay [1], the IC50 was found to be 600 ± 51 nM. Moreover, the Kd in assay [2] was found to be 75 ± 2 nM.
`CC(C)COc1ccc(-c2nc(-c3ccccc3C(=O)O)cs2)cn1` [PF-07238025] displayed a Kd in assay [3] of 4.4 ± 1.1 nM. In assay [4] (stabilises BDK-E2 interaction, pH […] KCl, […] MgCl2, […] DTT), this molecule registered an EC50 of 19 ± 1.7 nM. Moreover, the figures for the IC50 in assay [5] and in assay [6] were 59 ± 10 nM and 4.5 ± 0.58 nM, respectively.
For `O=C(O)c1cc2sc(F)cc2s1` [S2], the half-inhibitory concentration (IC50) in assay [1] is 210 ± 10 nM. The equilibrium dissociation constant (Kd) in assay [2] turned out to be 270 ± 31 nM.
In assay [7], `O=C(O)c1sc2cc(F)sc2c1Cl` [PF-07208254] yielded an IC50 of 56 ± 26 nM. The Kd in assay [3] is 84 ± 8.7 nM. In addition, the “% (agonism) PF-07208254” value on Serotonin 5-HT2a (100 µM) is listed as -5%.
In assay [3], `CCC1(COc2ccc(-c3csc(-c4ccccc4C(=O)O)n3)cn2)CC1` [PF-07247685] gave a Kd of 0.68 ± 0.38 nM. Also, a half-maximal effect in assay [4] (EC50) was put at 2.2 ± 0.35 nM. In addition, the “% (agonism) PF-07247685” value on Serotonin 5-HT2a (10 µM) was 3%. The IC50 in assay [6] came to 0.86 ± 0.15 nM.
Regarding `Cc1ccc(-c2nc(-c3ccccc3C(=O)O)cs2)cc1` [S3], the IC50 in assay [1] was determined as 1200 ± 490 nM. In addition, the equilibrium dissociation constant (Kd) in assay [2] was 5800 ± 4400 nM.
